From US8415497B2, “N-halogenated amino compounds and derivatives” (Novabay Pharmaceuticals, Inc., priority 2006, dated 2013)
Marks after values point to notes of the source that are not given here.

Tests used:
Assay type in all cases: cell-based
[1] = Concentration dependence of antimicrobial activity; conditions: 0.9% saline at pH 3.5
Text: (§1) The results of our discovery provide support for antimicrobial activity of 3-(4-chlorophenyl)-2-(dichloroamino)-2-methylpropane-1-sulfonic acid in 0.9% saline at pH 3.5. […] In contrast, cell toxicity is seen at a 1000-fold higher range in the mM range.

[2] = tested on: cells; experiment: Cell toxicity, XTT assay
Text: as §1

[3] = tested on: Staphylococcus aureus (MCC 91731); experiment: Antimicrobial activity, minimum biocidal concentration; conditions: S. aureus MCC 91731 (*), 1 h
Protocol: (§2) To determine antimicrobial activity, we use Escherichia coli (ATCC 25922), Staphylococcus aureus (ATCC 29213), Pseudomonas aeruginosa (ATCC 27853), and Candida albicans (ATCC 10231) in primary screening. In addition, we use Staphylococcus aureus (MCC 91731), Pseudomonas aeruginosa (MCC 4438), and Candida albicans (MCC 50319), provided by Alcon Laboratories, Fort Worth, Tex. The microbial cultures are diluted in sterile saline pH 4 to prepare inocula. […] Bacterial plating on Petri dishes (Tryptic Soy agar or Saboraud's Dextrose agar) is performed immediately after the designated exposure after neutralization of the test article dilutions in Dey-Engley Broth. Plates are incubated at 37° C., and the numbers of bacteria are counted by direct colony count to quantitate the surviving bacteria as CFU/mL. Positive growth controls are made with sterile 0.9% saline. All compounds are tested three times. The results are tabulated to show the comparison of antimicrobial effectiveness range of the compounds.

[4] = tested on: Pseudomonas aeruginosa (MCC 4438); experiment: as above; conditions: P. aeruginosa MCC 4438 (#), 1 h
Protocol: as §2, with “The microbial cultures are diluted in sterile saline pH 4 to prepare inocula.” left out

[5] = tested on: Candida albicans (MCC 50319); experiment: as above; conditions: C. albicans MCC 50319 (+), 1 h
Protocol: as §2, with “The microbial cultures are diluted in sterile saline pH 4 to prepare inocula.” left out

[6] = tested on: mouse fibroblast cells (ATCC CCL-1, L929); experiment: Cytotoxicity, WST-8 colorimetric assay; conditions: 60 min exposure
Protocol: Cytotoxicity is assessed by a colorimetric assay system using the Dojindo™ cell counting kit containing 2-(2-methoxy-4-nitrophenyl)-3-(4-nitrophenyl)—S—(2,4-disulfophenyl)-2H-tetrazolium, monosodium salt (WST-8). In this assay, the WST-8 reagent is bioreduced by cellular dehydrogenases to a formazan product that is highly soluble in tissue culture medium. The orange formazan, which is produced only by live cells, is a direct measure of cell viability and can be read spectrophotometrically (for example, evaluation of a soluble tetrazolium/formazan assay for cell growth and drug sensitivity in culture using human and other tumor cell lines is described by Scudiero D A, Shoemaker R A H, Paul K D, Monks A, Tierney S, Nofziger T H, Currens M J, Seniff D, Boyd M R. Cancer Res. 1988 Sep. 1; 48(17):4827-33). Similar approaches for determining the cell viability are known in the art.
In a standard assay, mouse fibroblast cells (ATCC CCL-1, L929), are cultured in Minimum Essential Medium, α-medium supplemented with 10% heat inactivated fetal bovine serum, L-glutamine, penicillin and streptomycin. Cells are trypsinized and counted under the microscope and seeded at 1.5×10^4 total cells per 100 μL per well of a flat-bottom 96-well plate in order to achieve ˜80% confluence after overnight incubation at 37° C. On the day of the assay, the tissue culture medium is removed and replaced with 30 μL of fresh medium.
Test articles are prepared as 2-fold serial dilutions and 170 μL, of each dilution is added into each of 4-wells (total volume per well=200 μL). The test plate is then returned to the 37° C. incubator for 60 min. Immediately after the exposed time, test article from each well is replaced with 200 μL of fresh media. Plates are incubated at 37° C. for 18-20 hours. The following day growth medium is replaced with 100 μL/well of fresh medium containing 10/100 μL WST-8 reagent. Cells are incubated under growth conditions (5% CO2 at 37° C. humidified incubator), protected from light, until color development is achieved (usually 1-4 hours). Absorbance is read at 450 nm with reference wavelength at 750 nm using Molecular Device SpectraMax M5 plate reader. Untreated or vehicle only treated cells receiving WST-8 reagent serve as positive cell proliferation controls.
The CT50 value for each compound was calculated from the absorbance values (A450-750) and is defined as the concentration of test article that results in survival of 50% of the cells following treatment. The absorbance A450-750 from each well of untreated cells and from each well within the dilution series was measured. To calculate the CT50 for each compound, all compound concentrations were first log-transformed using GraphPad Prism4 (ver 4.03) software. Next, a non-linear regression (curve fit) analysis was performed on all the absorbance data measured from the dilution series, including the absorbance data obtained from wells of the untreated control cells. For each dilution within the dilution series, an average A450-750 was calculated from the four replicate wells. The average A450-750 data were plotted on a y-axis against the log-transformed compound concentration on the x-axis, and the CT50 value calculated from the resulting best-fit curve.

[7] = tested on: Escherichia coli (ATCC 25922); experiment: Antimicrobial activity, minimum bactericidal/biocidal concentration; conditions: E. coli 25922, pH 4 (Sal), 1 h
Protocol: (§3) To determine antimicrobial activity, we use Escherichia coli (ATCC 25922), Staphylococcus aureus (ATCC 29213), Pseudomonas aeruginosa (ATCC 27853), and Candida albicans (ATCC 10231) in primary screening. In addition, we use Staphylococcus aureus (MCC 91731), Pseudomonas aeruginosa (MCC 4438), and Candida albicans (MCC 50319), provided by Alcon Laboratories, Fort Worth, Tex. The microbial cultures are diluted in sterile saline pH 4 to prepare inocula. Test compounds are titrated by stepwise two-fold dilutions in sterile saline pH 4, 1.0×10^5 to 1.0×10^6 Colony Forming Units (CFU)/mL bacteriamicrobe is added to each tube, mixed by gentle vortexing, and then incubated at room temperature for 1 h. Bacterial plating on Petri dishes (Tryptic Soy agar or Saboraud's Dextrose agar) is performed immediately after the designated exposure after neutralization of the test article dilutions in Dey-Engley Broth. Plates are incubated at 37° C., and the numbers of bacteria are counted by direct colony count to quantitate the surviving bacteria as CFU/mL. Positive growth controls are made with sterile 0.9% saline. All compounds are tested three times. The results are tabulated to show the comparison of antimicrobial effectiveness range of the compounds.

[8] = tested on: Staphylococcus aureus (ATCC 29213); experiment: as above; conditions: S. aureus 29213, pH 4 (Sal), 1 h
Protocol: as §3

[9] = tested on: Candida albicans (ATCC 10231); experiment: Antimicrobial activity, minimum biocidal concentration; conditions: C. albicans 10231, pH 4 (Sal), 1 h
Protocol: as §3

Structure (SMILES)	Minimum Biocidal Concentration (MBC) (≧99.9% kill) ([3]; pH 4 (Sal))	Minimum Biocidal Concentration (MBC) (≧99.9% kill) ([4]; pH 4 (Sal))	CT50 (concentration that results in survival of 50% of the cells) ([6]; pH 4 (Sal)) [mM]	Minimum Biocidal Concentration (MBC) (≧99.9% kill) [7] [µg/mL]	Minimum Biocidal Concentration (MBC) (≧99.9% kill) [8] [µg/mL]	Minimum Biocidal Concentration (MBC) (≧99.9% kill) [9] [µg/mL]	further results
CC(Cc1ccc(Cl)cc1)(CS(=O)(=O)O)N(Cl)Cl (stereo not shown) [Compound 570, 3-(4-chlorophenyl)-2-(dichloroamino)-2-methylpropane-1-sulfonic acid]							antimicrobial activity [1]: considerable in a μM range; cell toxicity range relative to antimicrobial range [2]: 1000 fold; tolerance of treatment, cell proliferation versus untreated control cells ([2]; XTT assay): able to tolerate the treatment and be able to go through normal cell proliferation cycles
O=S(=O)(O)CC1(N(Cl)Cl)CCCCCC1 [Compound 601, (1-(Dichloroamino)cycloheptyl)methanesulfonic acid]	0.25* μg/mL	0.5# μg/mL					
CC1(N(Cl)Cl)CCCCC1S(=O)(=O)O (stereo not shown) [Compound 611, 2-(Dichloroamino)-2-methylcyclohexane-1-sulfonic acid]	1* μg/mL	1# μg/mL	0.25				Minimum Biocidal Concentration (MBC) (≧99.9% kill) ([3]; pH 7 (PBS)): 64* μg/mL; Minimum Biocidal Concentration (MBC) (≧99.9% kill) ([5]; pH 4 (Sal)): 0.5+ μg/mL; Minimum Biocidal Concentration (MBC) (≧99.9% kill) ([5]; pH 7 (PBS)): 64+ μg/mL; Minimum Biocidal Concentration (MBC) (≧99.9% kill) ([4]; pH 7 (PBS)): 32# μg/mL; CT50 (concentration that results in survival of 50% of the cells) ([6]; pH 7 (PBS)): 4.6 mM
CC(C)(COC(=O)CCS(=O)(=O)O)N(Cl)Cl [Compound 614, 3-(2-(Dichloroamino)-2-methylpropoxy)-3-oxopropane-1-sulfonic acid]	1* μg/mL	4# μg/mL	0.43				Minimum Biocidal Concentration (MBC) (≧99.9% kill) ([3]; pH 7 (PBS)): 128* μg/mL; Minimum Biocidal Concentration (MBC) (≧99.9% kill) ([5]; pH 4 (Sal)): 4+ μg/mL; Minimum Biocidal Concentration (MBC) (≧99.9% kill) ([5]; pH 7 (PBS)): 512+ μg/mL; Minimum Biocidal Concentration (MBC) (≧99.9% kill) ([4]; pH 7 (PBS)): 256# μg/mL; CT50 (concentration that results in survival of 50% of the cells) ([6]; pH 7 (PBS)): 4.6 mM
CC(C)(CS(=O)(=O)O)C(=O)OCC(C)(C)N(Cl)Cl [Compound 625, 3-(2-(Dichloroamino)-2-methylpropoxy)-2,2-dimethyl-3-oxopropane-1-sulfonic acid]			2.6	4	8	16	
CNS(=O)(=O)CC(C)(C)N(Cl)Cl [Compound 626, 2-(Dichloroamino)-N,2-dimethylpropane-1-sulfonamide]				4	0.5	8	
CC(=O)NS(=O)(=O)CC(C)(C)N(Cl)Cl [Compound 627, N-(2-(Dichloroamino)-2-methylpropylsulfonyl)acetamide]				2	1	64	
CC(C)(CC(=O)OCCS(=O)(=O)O)N(Cl)Cl [Compound 628, 2-(3-(Dichloroamino)-3-methylbutanoyloxy)ethanesulfonic acid]				2	2	64	
CC(C)(CS(=O)(=O)CCS(=O)(=O)O)N(Cl)Cl [Compound 630, 2-(2-(Dichloroamino)-2-methylpropylsulfonyl)ethanesulfonic acid]				4	8	64	
CC(=O)N1CCC(CS(=O)(=O)O)(N(Cl)Cl)CC1 [Compound 637, (1-Acetyl-4-(dichloroamino)piperidin-4-yl)methanesulfonic acid]				16	4	128	
